Reference: ChEMBL document CHEMBL3046839, “Six insecticidal isoryanodane diterpenoids from the bark and twigs of Itoa orientalis” (2008)
Values after ≈ are worked out from the molar mass of the structure shown. Active and inactive are the calls of the source. The rule behind the calls is not given here.

Experiments:
Helicoverpa armigera = assay: Insecticidal activity against Heliothis armigera larvae reared on artificial diet assessed as growth inhibition after 72 hr; assay type: functional, organism-based
Bel-7402 = assay: Cytotoxicity against Homo sapiens (human) Bel7402 cells at 10 uM by MTT assay; assay type: functional, cell-based
KB = assay: Cytotoxicity against Homo sapiens (human) KB cells at 10 uM by MTT assay; assay type: functional, cell-based
HL-60 = assay: Cytotoxicity against Homo sapiens (human) HL60 cells at 10 uM by MTT assay; assay type: functional, cell-based
BGC-823 = assay: Cytotoxicity against Homo sapiens (human) BGC823 cells at 10 uM by MTT assay; assay type: functional, cell-based
Spodoptera exigua [1] = assay: Insecticidal activity against Spodoptera exigua larvae reared on artificial diet assessed as mortality rate at 56.19 ppm after 72 hr; assay type: functional
Spodoptera exigua [2] = assay: Insecticidal activity against Spodoptera exigua larvae reared on artificial diet assessed as mortality rate after 72 hr; assay type: functional; conditions: for LC50: Spodoptera exigua, 72 h
Spodoptera exigua [3] = assay: Insecticidal activity against Spodoptera exigua larvae reared on artificial diet assessed as mortality rate at 96.88 ppm after 72 hr; assay type: functional
Spodoptera exigua [4] = assay: Insecticidal activity against Spodoptera exigua larvae reared on artificial diet assessed as mortality rate at 42.63 ppm after 72 hr; assay type: functional
Spodoptera exigua [5] = assay: Insecticidal activity against Spodoptera exigua larvae reared on artificial diet assessed as mortality rate at 32 ppm after 72 hr; assay type: functional
Spodoptera exigua [6] = assay: Insecticidal activity against Spodoptera exigua larvae reared on artificial diet assessed as mortality rate at 73.63 ppm after 72 hr; assay type: functional
Spodoptera exigua [7] = assay: Insecticidal activity against Spodoptera exigua larvae reared on artificial diet assessed as mortality rate at 31.56 ppm after 72 hr; assay type: functional
Spodoptera exigua [8] = assay: Insecticidal activity against Spodoptera exigua larvae reared on artificial diet assessed as mortality rate at 55.64 ppm after 72 hr; assay type: functional
Spodoptera exigua [9] = assay: Insecticidal activity against Spodoptera exigua larvae reared on artificial diet assessed as mortality rate at 95.65 ppm after 72 hr; assay type: functional
Spodoptera exigua [10] = assay: Insecticidal activity against Spodoptera exigua larvae reared on artificial diet assessed as mortality rate at 42.08 ppm after 72 hr; assay type: functional
Spodoptera exigua [11] = assay: Insecticidal activity against Spodoptera exigua larvae reared on artificial diet assessed as mortality rate at 72.68 ppm after 72 hr; assay type: functional

SMILES	growth inhibition (GI) (Helicoverpa armigera)	Activity (Bel-7402)	Activity (KB)	Activity (HL-60)	Activity (BGC-823)	mortality at 56.19 ppm (Spodoptera exigua [1])	LC90 (Spodoptera exigua [2])	LC50 (Spodoptera exigua [2])	mortality at 96.88 ppm (Spodoptera exigua [3])	mortality at 42.63 ppm (Spodoptera exigua [4])	mortality at 32 ppm (Spodoptera exigua [5])	mortality at 73.63 ppm (Spodoptera exigua [6])	mortality at 31.56 ppm (Spodoptera exigua [7])	mortality at 55.64 ppm (Spodoptera exigua [8])	mortality at 95.65 ppm (Spodoptera exigua [9])	mortality at 42.08 ppm (Spodoptera exigua [10])	mortality at 72.68 ppm (Spodoptera exigua [11])
CC(C)[C@@]1(O)[C@H](O)[C@@H]2[C@@]3(O)[C@@H]4O[C@@](O)(C[C@@]2(C)[C@@]2(O)CC[C@](C)(O)[C@@H]42)[C@]31C	inactive																
CC(C)[C@@]1(O)[C@H](O[C@@H]2O[C@H](CO)[C@@H](O)[C@H](O)[C@H]2O)[C@@H]2[C@@]3(O)[C@@H]4O[C@@](O)(C[C@@]2(C)[C@@]2(O)CC[C@@H](C)[C@@H]42)[C@]31C	inactive	inactive	inactive	inactive	inactive												
CC(CO[C@@H]1O[C@H](CO)[C@@H](O)[C@H](O)[C@H]1O)[C@@]1(O)[C@H](O)[C@@H]2[C@@]3(O)[C@@H]4O[C@@](O)(C[C@@]2(C)[C@@]2(O)CC[C@@H](C)[C@@H]42)[C@]31C (stereo partly specified)	inactive	inactive	inactive	inactive	inactive												
C[C@@H]1CC[C@@]2(O)[C@@H]1[C@H]1O[C@@]3(O)C[C@]2(C)[C@@H]2[C@@H](O)[C@](O)(C(C)(C)O)[C@@]3(C)[C@]12O	inactive	inactive	inactive	inactive	inactive												
CC(C)[C@@]1(O)[C@H](O)[C@@H]2[C@@]3(O)[C@@H]4O[C@@](O)(C[C@@]2(C)[C@@]2(O)CC[C@@H](C)[C@@H]42)[C@]31C [ITOL A]	inactive	inactive	inactive	inactive	inactive	83%	67.68 µg/mL (≈ 184 µM)	28.6 µg/mL (≈ 77.7 µM)	96%	73%	56%	94%					
CC(CO)[C@@]1(O)[C@H](O)[C@@H]2[C@@]3(O)[C@@H]4O[C@@](O)(C[C@@]2(C)[C@@]2(O)CC[C@@H](C)[C@@H]42)[C@]31C (stereo partly specified) [ITOL B]	inactive						131.7 µg/mL (≈ 343 µM)	52.8 µg/mL (≈ 137 µM)					26%	59%	77%	31%	69%
